Data set [1] has as its system Penicillium glaucum. Nature of the data set: minimum inhibitory concentration against fungi (agar). The format is cell-based. The conditions noted are these: 336 h. Here is the method: (§1) An agar prepared from beer wort and peptone is mixed with the substance according to the invention at concentrations from 0.5 mg/l to 5,000 mg/l.
(§2) After storage for 2 weeks at 28° C. and 60 to 70% relative atmospheric humidity, the MIC is determined. The MIC is the lowest concentration of active agent with which no growth by the type of microbe used ensues; it is given in the table below.

Data set [2] concerns Aspergillus niger. Described as above. It counts as cell-based. Conditions: 336 h. Here is the method: as §1, §2
In data set [3] the test system is Pullularia pullulans. The data set is described as above. The format is cell-based. The conditions noted are these: 336 h. Here is the method:
as §1, §2

Data set [4] has as its system Paecilomyces varioti. The data set is described as above. It counts as cell-based. The conditions noted are these: 336 h. As to the method: as §1, §2
Data set [5] concerns Stachybotris atra C. The description is as above. The format is cell-based. Conditions: 336 h. Here is the method: as §1, §2
In data set [6] the test system is Alternaria tenuis. The data set is described as above. The conditions noted are these: Alternaria alternata, 336 h. It counts as cell-based. As to the method: as §1, §2
Data set [7] concerns Cladosporium herbarum. The description is as above. It counts as cell-based. The conditions noted are these: 336 h. Here is the method:
as §1, §2

Data set [8] deals with Trichoderma viride. Described as above. It counts as cell-based. Conditions: 336 h. Here is the method: as §1, §2
Data set [9] concerns Penicillium citrinum. The data set is described as above. The format is cell-based. The conditions noted are these: 336 h. As to the method: as §1, §2
Data set [10] relates to Coniophora cerebella. Described as above. The conditions noted are these: 336 h. The format is cell-based. As to the method:
as §1, §2

Data set [11] in a line: solubility of substance A compared to substance B. The format is physicochemical. Here is the method: Solubility of substance A compared to substance B (g/l at 20° C.): […]
Data set [12] concerns Escherichia coli. As to the kind of experiment: action against bacteria, MIC (bouillon agar). It counts as cell-based. Conditions: 336 h. As to the method: An agar, containing bouillon as a nutrient medium, is treated with the active agents A and B (Example 2) given in Table II at concentrations from 1 to 5,000 ppm. The nutrient medium is then inoculated with either Escherichia coli or Staphylococcus aureus and the inoculated medium is maintained for 2 weeks at 28° C. and 60 to 70% relative atmospheric humidity. The MIC is the lowest concentration of active agent with which no growth by the type of microbe used ensues.

Setting [13] is: beer wort/peptone agar, 2 weeks at 28° C., 60 to 70% relative humidity, read-out: MIC.

Converted amounts (≈) assume the structure as drawn. Where two headings read alike, the source gives them in different places.

By MIC is commonly meant the lowest concentration found to suppress growth. By Solubility is commonly meant how much of the substance goes into solution per volume. A higher Solubility goes with much dissolved substance. As to `O=C1C2C3C=CC(C3)C2C(=O)N1SC(F)(Cl)Cl` (stereo not shown) [A], the MIC came to 10 µg/mL (≈ 0.0338 mM) in data set [1] (Penicillium glaucum, beer wort/peptone agar, 2 weeks at 28° C., 60 to 70% relative humidity, read-out: MIC); 200 µg/mL (≈ 0.675 mM) in data set [2] (setting [13]); 5 µg/mL (≈ 0.0169 mM) in [3] (Pullularia pullulans, beer wort/peptone agar, 2 weeks at 28° C., 60 to 70% relative humidity, read-out: MIC); 10 µg/mL (≈ 0.0338 mM) in [4] (Paecilomyces varioti, beer wort/peptone agar, 2 weeks at 28° C., 60 to 70% relative humidity, read-out: MIC); 15 µg/mL (≈ 0.0507 mM) in data set [5] (Stachybotris atra C., beer wort/peptone agar, 2 weeks at 28° C., 60 to 70% relative humidity, read-out: MIC); 10 µg/mL (≈ 0.0338 mM) in data set [6] (Alternaria tenuis, beer wort/peptone agar, 2 weeks at 28° C., 60 to 70% relative humidity, read-out: MIC). The minimal inhibitory concentration (MIC) in [7] (setting [13]) is 7 µg/mL (≈ 0.0236 mM); in data set [8] (setting [13]), 200 µg/mL (≈ 0.675 mM); in data set [9] (setting [13]), 7 µg/mL (≈ 0.0236 mM); in data set [10] (setting [13]) it was less than 1 µg/mL; in data set [12] (bouillon agar, 2 weeks at 28° C., 60 to 70% relative humidity, read-out: MIC), 200 µg/mL (≈ 0.675 mM). Further, the Solubility in data set [11] (Ethyl acetate, 20° C.) was found to be 330 mg/mL (≈ 1110 mM); in [11] (Shellsol AB, 20° C.) it was 140 mg/mL (≈ 473 mM); in data set [11] (Solvesso 100, 20° C.), 200 mg/mL (≈ 675 mM); in [11] (Xylene, 20° C.), 250 mg/mL (≈ 844 mM). For the same compound, in data set [11] (particularly when compared to substance B), the “solubility properties (in words)” value is “very good solubility properties”.

`CN(C)S(=O)(=O)N(SC(F)(Cl)Cl)c1ccccc1` [B]: the MIC in data set [1] (Penicillium) worked out at 35 µg/mL (≈ 0.105 mM); in data set [2], 50 µg/mL (≈ 0.15 mM); in data set [3], 20 µg/mL (≈ 0.06 mM); in [4] (Paecilomyces) it was 20 µg/mL (≈ 0.06 mM); in data set [5] it was 50 µg/mL (≈ 0.15 mM); in [6], 20 µg/mL (≈ 0.06 mM). Besides, the MIC in data set [7] amounted to 35 µg/mL (≈ 0.105 mM); in [8] it was 5000 µg/mL (≈ 15 mM); in data set [9], 150 µg/mL (≈ 0.45 mM); in data set [10] it was 10 µg/mL (≈ 0.03 mM); in data set [12], 500 µg/mL (≈ 1.5 mM). Moreover, the Solubility in data set [11] (Ethyl acetate, 20° C.) was found to be 117 mg/mL (≈ 351 mM); in [11] (Shellsol AB, 20° C.) it was 60 mg/mL (≈ 180 mM); in data set [11] (Solvesso 100, 20° C.), 75 mg/mL (≈ 225 mM); in data set [11] (Xylene, 20° C.), 65 mg/mL (≈ 195 mM).

(Values after patent US4513003A, “Process for protecting wood using N-(dichlorofluoromethylthio)-3,6-endomethylene-Δ^4 -tetrahydrophthalimide” (Bayer Aktiengesellschaft, priority 1981, dated 1985).)
